Target: Ft-MglA/Ft-SspA complex (Francisella tularensis, UniProt Q5NFG1+Q5NHJ6)
Sequence (Q5NFG1 1-205): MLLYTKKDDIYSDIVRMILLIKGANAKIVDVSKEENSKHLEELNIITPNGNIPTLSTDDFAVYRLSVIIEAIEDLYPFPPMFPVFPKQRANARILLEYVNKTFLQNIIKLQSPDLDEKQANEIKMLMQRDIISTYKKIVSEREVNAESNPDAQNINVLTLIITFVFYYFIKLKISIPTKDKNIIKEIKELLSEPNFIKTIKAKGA
Sequence (Q5NHJ6 1-210): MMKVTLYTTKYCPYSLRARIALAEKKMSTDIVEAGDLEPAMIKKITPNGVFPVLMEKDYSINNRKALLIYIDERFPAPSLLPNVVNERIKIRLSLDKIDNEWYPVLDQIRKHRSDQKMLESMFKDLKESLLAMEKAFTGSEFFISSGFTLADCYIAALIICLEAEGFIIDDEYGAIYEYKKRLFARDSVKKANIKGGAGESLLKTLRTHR

CCN(CC)CCCC(C)Nc1c2ccc(Cl)cc2nc2ccc(OC)cc12 (stereo not shown) [quinacrine]
ΔTm (Tm1): 24.0 °C

— PMC3553074 (PLoS ONE, 2013)
